Read-outs that look alike come from different tables or passages of the source.

Format in all cases: in vivo
In data set [1] the test system is Diamondback moth (Plutella xylostella (Linnaeus)). As to the kind of experiment: Test against diamondback moth, leaf disc dip. As to conditions: after 72 hours; for Activity against diamondback moth (in words): second-instar larvae. How it is done:
(§1) The test compound was dissolved in an appropriate solvent such as N,N-dimethylformamide, and then diluted with 0.2% aqueous solution of Tween 80 to the desired concentration, Those without the test compounds were set as blank controls, the treatments were replicated 3 times. The cabbage leaves were perforated to get 18 mm diameter leaf discs by a hole puncher, 5 leaf discs were dipped in the test solution for 10 seconds and then put into a Petri dish (diameter 90 mm) padded with moisturizing filter paper, after air-drying, the leaf discs were infested with no less than ten second-instar larvae of test insects which were starved for 4 hours, and then the dish was covered and placed in a chamber for culture. After 72 hours, the number of dead insects was investigated, the mortality was calculated, and the regression equation, correlation coefficient (r) and the median lethal concentration (LC50) were obtained using Probit analysis method.

In data set [2] the test system is Spodoptera litura (Fabricius). As to the kind of experiment: Test against Spodoptera litura, leaf disc dip. The following applies: after 72 hours; for Activity against Spodoptera litura (in words): second-instar larvae; for Median lethal concentration LC50 against Spodoptera litura, compared with D1: same conditions. Here is the method:
as §1

Data set [3] has as its system Armyworm (Mythimna separata (Walker)). The data set is described as follows: Test against armyworm, Potter tower method. The following applies: for mortality at 50 µg/mL / mortality at 500 µg/mL / mortality at 12.5 µg/mL: Mythimna separata, read-out: Activity (mortality) level against armyworm; for Activity against armyworm, further screening (in words): compared with chlorantraniliprole (D1). The essentials: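 Third-instar larvae, ten per dish on corn leaf fragments, were sprayed in a Potter tower with 1 mL of compound in DMF diluted in 0.2% Tween 80, in triplicate. Mortality was scored after 72 h and reported as mean mortality against a solvent blank.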

The subject of a further data set is Aphis fabae. As to the kind of experiment: Test against aphid, leaf dip method (Aphis fabae). The following applies: foliar; for mortality at 12.5 µg/mL: 12.5 mg/L; for mortality at 12.5 µg/mL / mortality at 50 µg/mL / mortality at 200 µg/mL / mortality at 500 µg/mL: read-out: Activity (mortality) level against Aphis fabae; for mortality at 200 µg/mL: 200 mg/L; for LC50: further test, read-out: LC50 against Aphis fabae. The essentials: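 Horsebean seedlings carrying at least twenty 3-day-old Aphis fabae dipped 5 seconds in compound solutions (DMF, diluted in 0.2% aqueous Tween 80), three replicates with solvent blank. Live and dead insects counted after 24 hours.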

[4] abbreviates: 50 mg/L, third-instar larvae, after 72 hours.
The mark [5] stands for this setting: 500 mg/L, third-instar larvae, after 72 hours.
Where [6] appears, read: 12.5 mg/L, third-instar larvae, after 72 hours.

One may read the mortality as the share of the test organisms that died. With `CCN(C(=O)c1cc(Br)nn1-c1ncccc1Cl)c1c(Cl)cc(Cl)cc1C(=O)NC` [Compound 9, N-[2,4-dichloro-6-[(methylamino)carbonyl]phenyl]-N-ethyl-1-(3-chloro-2-pyridinyl)-3-bromo-1H-pyrazole-5-carboxamide], the “Activity against diamondback moth (in words)” value in data set [1] is “high activity at very low concentration”. In addition, the “Activity against Spodoptera litura (in words)” value in data set [2] is reported as “high activity at very low concentration”. Further, the mortality at 50 µg/mL was 90 to 100% in data set [3] (setting [4]) and 90 to 100% with Aphis fabae (50 mg/L, after 24 hours). The mortality at 500 µg/mL in data set [3] (setting [5]) was 90 to 100%; in the data set with Aphis fabae (500 mg/L, after 24 hours) it was 90 to 100%. Further, the “Activity against armyworm, further screening (in words)” value (“Activity against armyworm … (in words)” below) in data set [3] is recorded as “excellent activity”. Further, the mortality at 12.5 µg/mL with Aphis fabae (after 24 hours) is 90 to 100%. For the same molecule, the mortality at 200 µg/mL in the data set with Aphis fabae (after 24 hours) lay in the range of 90 to 100%.

With `CCNC(=O)c1cc(Cl)cc(Cl)c1N(CC)C(=O)c1cc(Br)nn1-c1ncccc1Cl` [Compound 10, N-[2,4-dichloro-6-[(ethylamino)carbonyl]phenyl]-N-ethyl-1-(3-chloro-2-pyridinyl)-3-bromo-1H-pyrazole-5-carboxamide], the “Activity against diamondback moth (in words)” value in data set [1] is on record as “high activity at very low concentration”. Further, the “Median lethal concentration LC50 against Spodoptera litura, compared with D1” value in data set [2] is given as “lower than that of chlorantraniliprole (D1)”. For the same molecule, the “Activity against Spodoptera litura (in words)” value in data set [2] was “high activity at very low concentration”. Also, the mortality at 12.5 µg/mL (in data set [3] (setting [6]); in the data set on Aphis fabae (after 24 hours)) was 90 to 100% throughout. Moreover, the mortality at 50 µg/mL in data set [3] (setting [4]) was in the range of 90 to 100%; in the data set on Aphis fabae (50 mg/L, after 24 hours), 90 to 100%. The mortality at 500 µg/mL is 90 to 100% in data set [3] (setting [5]) and 90 to 100% in the data set on Aphis fabae (500 mg/L, after 24 hours). The “Activity against armyworm … (in words)” value in data set [3] is “excellent activity”. Further, the mortality at 200 µg/mL in the data set with Aphis fabae (after 24 hours) was 90 to 100%. In addition, the LC50 with Aphis fabae is < 1 µg/mL.

For the molecule `CN(C)C(=O)c1cc(Cl)cc(Cl)c1N(C)C(=O)c1cc(Br)nn1-c1ncccc1Cl` [Compound 11, N-[2,4-dichloro-6-[(dimethylamino)carbonyl]phenyl]-N-methyl-1-(3-chloro-2-pyridinyl)-3-bromo-1H-pyrazole-5-carboxamide], the LC50 in data set [1] (Plutella xylostella, foliar, read-out: Lethal medium concentration LC50 against diamondback moth) was < 1 µg/mL; in the data set on Aphis fabae, < 1 µg/mL. Besides, the “Activity against diamondback moth (in words)” value in data set [1] was “high activity at very low concentration”. In data set [2], the “Activity against Spodoptera litura (in words)” value is “high activity at very low concentration”. The mortality at 12.5 µg/mL (in data set [3] (setting [6]); in the data set with Aphis fabae (after 24 hours)) was 90 to 100% in each case. In addition, the mortality at 50 µg/mL is 90 to 100% in data set [3] (setting [4]) and 90 to 100% with Aphis fabae (50 mg/L, after 24 hours). The mortality at 500 µg/mL in data set [3] (setting [5]) was 90 to 100%; in the data set on Aphis fabae (500 mg/L, after 24 hours), 90 to 100%. Also, the “Activity against armyworm … (in words)” value in data set [3] is given as “excellent activity”. For the same molecule, the mortality at 200 µg/mL with Aphis fabae (after 24 hours) is 90 to 100%.

In the case of `CCN(C)C(=O)c1cc(Cl)cc(Cl)c1N(C)C(=O)c1cc(Br)nn1-c1ncccc1Cl` [Compound 12, N-[2,4-dichloro-6-[(methyl(ethyl)amino)carbonyl]phenyl]-N-methyl-1-(3-chloro-2-pyridinyl)-3-bromo-1H-pyrazole-5-carboxamide], the “Activity against diamondback moth (in words)” value in data set [1] was “high activity at very low concentration”. Moreover, the “Activity against Spodoptera litura (in words)” value in data set [2] is reported as “high activity at very low concentration”. Further, the mortality at 12.5 µg/mL (in data set [3] (setting [6]); with Aphis fabae (after 24 hours)) was 90 to 100% throughout. The mortality at 50 µg/mL in data set [3] (setting [4]) lay in the range of 90 to 100%; in the data set on Aphis fabae (50 mg/L, after 24 hours), 90 to 100%. The mortality at 500 µg/mL in data set [3] (setting [5]) is 90 to 100%; with Aphis fabae (500 mg/L, after 24 hours), 90 to 100%. In addition, the “Activity against armyworm … (in words)” value in data set [3] was “excellent activity”. Besides, the mortality at 200 µg/mL in the data set on Aphis fabae (after 24 hours) was 90 to 100%.

Take `CCN(CC)C(=O)c1cc(Cl)cc(Cl)c1N(C)C(=O)c1cc(Br)nn1-c1ncccc1Cl` [Compound 15, N-[2,4-dichloro-6-[(diethylamino)carbonyl]phenyl]-N-methyl-1-(3-chloro-2-pyridinyl)-3-bromo-1H-pyrazole-5-carboxamide]: the “Activity against diamondback moth (in words)” value in data set [1] is “high activity at very low concentration”. In data set [2], the “Median lethal concentration LC50 against Spodoptera litura, compared with D1” value is “lower than that of chlorantraniliprole (D1)”. In data set [2], the “Activity against Spodoptera litura (in words)” value is “high activity at very low concentration”. The mortality at 12.5 µg/mL (in data set [3] (setting [6]); in the data set on Aphis fabae (after 24 hours)) was 90 to 100% throughout. In addition, the mortality at 50 µg/mL in data set [3] (setting [4]) lay within 90 to 100%; with Aphis fabae (50 mg/L, after 24 hours) it was 90 to 100%. For the same molecule, the mortality at 500 µg/mL is 90 to 100% in data set [3] (setting [5]) and 90 to 100% in the data set on Aphis fabae (500 mg/L, after 24 hours). Besides, in data set [3], the “Activity against armyworm … (in words)” value is listed as “excellent activity”. The mortality at 200 µg/mL in the data set with Aphis fabae (after 24 hours) is 90 to 100%. Moreover, the LC50 with Aphis fabae is < 1 µg/mL.

`CCN(C)C(=O)c1cc(Cl)cc(Br)c1N(C)C(=O)c1cc(Br)nn1-c1ncccc1Cl` [Compound 32, N-[2-bromo-4-chloro-6-[(methyl(ethyl)amino)carbonyl]phenyl]-N-methyl-1-(3-chloro-2-pyridinyl)-3-bromo-1H-pyrazole-5-carboxamide]: in data set [1], the “Activity against diamondback moth (in words)” value is listed as “high activity at very low concentration”. The “Activity against Spodoptera litura (in words)” value in data set [2] is “high activity at very low concentration”. Also, the mortality at 12.5 µg/mL (in data set [3] (setting [6]); in the data set on Aphis fabae (after 24 hours)) was 90 to 100% throughout. The mortality at 50 µg/mL in data set [3] (setting [4]) lay in the range of 90 to 100%; in the data set with Aphis fabae (50 mg/L, after 24 hours), 90 to 100%. The mortality at 500 µg/mL in data set [3] (setting [5]) is 90 to 100%; in the data set on Aphis fabae (500 mg/L, after 24 hours) it was 90 to 100%. Moreover, the “Activity against armyworm … (in words)” value in data set [3] was “excellent activity”. Also, the mortality at 200 µg/mL in the data set with Aphis fabae (after 24 hours) lay within 90 to 100%.

`CNC(=O)c1cc(Cl)cc(C)c1NC(=O)c1cc(Br)nn1-c1ncccc1Cl` [Compound D1, chlorantraniliprole, reference compound]: in data set [1], the “Activity against diamondback moth (in words)” value is on record as “high activity at very low concentration”. Also, the “Activity against Spodoptera litura (in words)” value in data set [2] is “high activity at very low concentration”. Further, the Activity against armyworm result in data set [3] (1.25 mg/L) was “less than 50%”. For the same molecule, in data set [3] (72 h), the mortality at 12.5 µg/mL was in the range of 90 to 100%, the mortality at 50 µg/mL was 90 to 100% and the mortality at 500 µg/mL is 90 to 100%. Also, in the data set with Aphis fabae (24 h), the mortality at 50 µg/mL lay in the range of 0 to 50% and the mortality at 500 µg/mL was in the range of 90 to 100%.

Values taken from patent US20220132846A1, “1-PYRIDYL-PYRAZOLYL AMIDE COMPOUNDS AND PREPARATION AND USES THEREOF” (HUNAN RESEARCH INSTITUTE OF CHEMICAL INDUSTRY CO., LTD., priority 2019, published 2022).
